From ChEMBL document CHEMBL1146888, “Synthesis and cytotoxicity of leinamycin antibiotic analogues” (J Med Chem, 2006) come the findings set out here.

The subject of test [1] is HeLa. In words: Cytotoxicity against human HeLa3 cell line by MTT assay. Type of test: functional, cell-based.
Test [2] deals with HeLa. In words: Cytotoxicity against human HeLa3 cell line in presence of ethanethiol by MTT assay. It is filed as functional, cell-based. On the technique in general: Formazan colour is commonly taken as a measure of viable cells.

Regarding `Cc1cn([C@H]2C[C@H](O)[C@@H](C3CC(=O)S[S+]3[O-])O2)c(=O)[nH]c1=O` (stereo partly drawn), the figures for the IC50 in test [1] and in test [2] were 119 µM and 29.7 µM, respectively.
For `O=C1CC([C@H]2O[C@@H](n3ccc(=O)[nH]c3=O)[C@H](O)[C@@H]2O)[S+]([O-])S1` (stereo partly drawn), the IC50 (usually the concentration needed to halve the response being measured) in test [1] was found to be 50.7 µM; in test [2], 7.01 µM.
`CC1(C)O[C@H]([C@H]2COC(C)(C)O2)[C@@H](C2CC(=O)S[S+]2[O-])O1` (stereo partly drawn): the results for the IC50 in test [1] and in test [2] were 18.2 µM and 12.6 µM, respectively.
As to `CC1(C)O[C@H]([C@H]2COC(C)(C)O2)[C@@H](C2CC(=O)SS2)O1` (stereo partly drawn), the IC50 in test [1] amounted to 35.9 µM; in test [2], 16.9 µM.
With `O=C1CC([C@H]2O[C@@H](n3ccc(=O)[nH]c3=O)[C@H](O)[C@@H]2O)SS1` (stereo partly drawn), the IC50 in test [1] amounted to 62.2 µM; in test [2], 20.7 µM.
For `CC(C)(C)[Si](C)(C)O[C@@H]1[C@H](O[Si](C)(C)C(C)(C)C)[C@@H](C2CC(=O)SS2)O[C@H]1n1ccc(=O)[nH]c1=O` (stereo partly drawn), the results for the IC50 in test [1] and in test [2] were 10 µM and 7.84 µM, respectively.
Take `Cc1cn([C@H]2C[C@H](O)[C@@H](C3CC(=O)SS3)O2)c(=O)[nH]c1=O` (stereo partly drawn): the results for the IC50 in test [1] and in test [2] were 299 µM and 54.6 µM, respectively.
Regarding `COc1cccc2c1C(=O)c1c(O)c3c(c(O)c1C2=O)C[C@@](O)(C(C)=O)C[C@@H]3OC1C[C@H](N)[C@H](O)[C@H](C)O1` (single isomer, unassigned) [DAUNORUBICIN], the IC50 in test [1] was 2.96 µM.
Consider `O=C1CC(CCc2ccccc2)SS1` (stereo not drawn), for which the IC50 in test [1] amounted to 258 µM; in test [2] it was 65.5 µM.
For the molecule `Cc1cn([C@H]2C[C@H](O[Si](C)(C)C(C)(C)C)[C@@H](C3CC(=O)SS3)O2)c(=O)[nH]c1=O` (stereo partly drawn), the IC50 in test [2] was 16.7 µM.
`O=C1CC(CCc2ccccc2)[S+]([O-])S1` (stereo not drawn): the IC50 was determined as 68.4 µM in test [1] and 24.8 µM in test [2].
Take `O=C1CC(CCC#CCOC2CCCCO2)SS1` (stereo not drawn): the IC50 in test [1] worked out at 124 µM; in test [2], 20.1 µM.
Consider `O=C1CC(CCC#CCOC2CCCCO2)[S+]([O-])S1` (stereo not drawn), for which the IC50 came to 62.9 µM in test [1] and 8.33 µM in test [2].
For `CC(C)(C)[Si](C)(C)O[C@@H]1[C@H](O[Si](C)(C)C(C)(C)C)[C@@H](C2CC(=O)S[S+]2[O-])O[C@H]1n1ccc(=O)[nH]c1=O` (stereo partly drawn), in that order: 3.68 µM and 2.67 µM.
In the case of `Cc1cn([C@H]2C[C@H](O[Si](C)(C)C(C)(C)C)[C@@H](C3CC(=O)S[S+]3[O-])O2)c(=O)[nH]c1=O` (stereo partly drawn), the IC50 in test [1] came to 43.1 µM; in test [2], 6.61 µM.
